{
  "source": "ChEMBL document CHEMBL1201862",
  "about": "“PubChem BioAssay data set” (2004)",
  "key": {"Cytochrome P450 3A4 [1]": {"molecular_target": "T1, Cytochrome P450 3A4 (Homo sapiens, UniProt P08684)", "T1 sequence (P08684 whole entry)": "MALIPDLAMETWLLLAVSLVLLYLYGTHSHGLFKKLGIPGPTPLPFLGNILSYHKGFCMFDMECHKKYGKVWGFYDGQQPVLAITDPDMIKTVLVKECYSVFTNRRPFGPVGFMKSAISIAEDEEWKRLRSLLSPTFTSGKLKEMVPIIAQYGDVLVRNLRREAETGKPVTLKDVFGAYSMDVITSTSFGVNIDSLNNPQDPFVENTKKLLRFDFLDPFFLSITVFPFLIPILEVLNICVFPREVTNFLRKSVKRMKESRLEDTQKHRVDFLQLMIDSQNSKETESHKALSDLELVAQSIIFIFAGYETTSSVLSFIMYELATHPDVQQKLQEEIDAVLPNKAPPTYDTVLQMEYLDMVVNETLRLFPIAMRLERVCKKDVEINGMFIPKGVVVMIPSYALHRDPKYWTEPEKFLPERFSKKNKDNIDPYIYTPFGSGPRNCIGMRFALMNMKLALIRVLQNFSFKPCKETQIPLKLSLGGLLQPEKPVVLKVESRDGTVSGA", "conditions": "Potency"}, "[2]": {"molecular_target": "Voltage-gated inwardly rectifying potassium channel KCNH2 (Homo sapiens, UniProt Q12809)", "assay": "concentration-dependent hERG rescue from blockers – cell-based, thallium flux, dose response (AID 2121)", "format": "ADME"}, "[3]": {"assay": "HPDE-C7 pancreatic duct cell viability loss – fluorescence, HTS (AID 430)", "format": "functional, cell-based", "conditions": "Homo sapiens"}, "[4]": {"assay": "viability loss of HPDE-C7K cells – cell-based, fluorescence, HTS, primary screen (AID 431)", "format": "functional", "conditions": "Homo sapiens"}, "[5]": {"molecular_target": "Mitogen-activated protein kinase 10 (Homo sapiens, UniProt P53779)", "sequence (P53779 whole entry)": "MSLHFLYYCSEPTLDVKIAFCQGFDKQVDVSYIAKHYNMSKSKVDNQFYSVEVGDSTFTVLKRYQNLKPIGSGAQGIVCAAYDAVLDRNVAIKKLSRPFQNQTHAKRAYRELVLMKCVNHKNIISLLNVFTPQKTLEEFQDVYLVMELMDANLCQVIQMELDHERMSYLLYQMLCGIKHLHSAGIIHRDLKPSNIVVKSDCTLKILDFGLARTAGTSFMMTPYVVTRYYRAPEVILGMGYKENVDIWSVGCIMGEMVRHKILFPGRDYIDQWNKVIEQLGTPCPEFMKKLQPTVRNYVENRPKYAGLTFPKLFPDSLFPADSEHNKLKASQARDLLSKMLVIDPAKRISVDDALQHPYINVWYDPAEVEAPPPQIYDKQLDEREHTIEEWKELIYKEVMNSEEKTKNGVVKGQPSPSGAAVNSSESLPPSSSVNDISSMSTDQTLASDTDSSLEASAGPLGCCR", "assay": "Dose response biochemical screening assay for inhibitors of c-Jun N-Terminal Kinase 3 (JNK3). [Related pubchem assays: 746 ]"}, "[6]": {"molecular_target": "FAD-linked sulfhydryl oxidase ALR (Homo sapiens, UniProt P55789)", "sequence (P55789 whole entry)": "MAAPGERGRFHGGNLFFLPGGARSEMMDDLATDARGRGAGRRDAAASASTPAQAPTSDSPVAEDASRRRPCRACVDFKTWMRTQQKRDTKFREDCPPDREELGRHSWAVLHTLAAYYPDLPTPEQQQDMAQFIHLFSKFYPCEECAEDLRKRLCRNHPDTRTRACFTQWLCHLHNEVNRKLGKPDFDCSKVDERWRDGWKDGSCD", "assay": "ALR-catalysed DTT oxidation blockers – biochemical, H2O2 detection, luminescence, cherry-pick, dose response (AID 493248)"}, "[7]": {"molecular_target": "Heat shock protein HSP 90-alpha (Homo sapiens, UniProt P07900)", "format": "functional, organism-based"}, "[8]": {"molecular_target": "T2, Alkaline phosphatase, tissue-nonspecific isozyme (Homo sapiens, UniProt P05186)", "T2 sequence (P05186 whole entry)": "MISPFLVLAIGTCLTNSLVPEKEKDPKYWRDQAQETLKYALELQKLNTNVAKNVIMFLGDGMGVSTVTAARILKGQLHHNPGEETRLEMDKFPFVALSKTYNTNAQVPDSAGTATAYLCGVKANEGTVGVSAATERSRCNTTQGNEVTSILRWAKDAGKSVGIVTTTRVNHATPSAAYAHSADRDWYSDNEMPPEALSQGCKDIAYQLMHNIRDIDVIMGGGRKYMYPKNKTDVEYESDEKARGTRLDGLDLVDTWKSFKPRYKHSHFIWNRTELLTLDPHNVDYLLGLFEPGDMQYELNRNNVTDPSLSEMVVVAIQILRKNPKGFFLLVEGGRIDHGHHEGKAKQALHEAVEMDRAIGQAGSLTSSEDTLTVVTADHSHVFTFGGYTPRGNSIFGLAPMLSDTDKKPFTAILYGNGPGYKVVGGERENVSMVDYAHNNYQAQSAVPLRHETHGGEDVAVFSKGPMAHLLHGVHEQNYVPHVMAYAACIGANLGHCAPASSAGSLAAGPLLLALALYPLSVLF"}, "Cytochrome P450 2D6": {"molecular_target": "Cytochrome P450 2D6 (Homo sapiens, UniProt P10635)", "sequence (P10635 whole entry)": "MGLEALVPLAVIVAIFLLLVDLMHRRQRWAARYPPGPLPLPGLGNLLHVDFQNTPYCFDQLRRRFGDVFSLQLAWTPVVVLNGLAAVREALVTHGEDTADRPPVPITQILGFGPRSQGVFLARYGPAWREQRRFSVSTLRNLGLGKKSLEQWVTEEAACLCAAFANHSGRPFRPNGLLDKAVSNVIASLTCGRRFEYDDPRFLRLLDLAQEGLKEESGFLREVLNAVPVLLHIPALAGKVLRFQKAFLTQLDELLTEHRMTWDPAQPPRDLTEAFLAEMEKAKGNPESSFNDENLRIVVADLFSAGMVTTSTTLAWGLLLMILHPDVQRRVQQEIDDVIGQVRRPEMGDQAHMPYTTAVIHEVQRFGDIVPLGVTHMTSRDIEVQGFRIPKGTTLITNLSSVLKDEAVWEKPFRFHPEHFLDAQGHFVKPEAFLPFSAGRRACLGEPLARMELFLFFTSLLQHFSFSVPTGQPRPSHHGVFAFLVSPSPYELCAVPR"}, "Cytochrome P450 3A4 [9]": {"molecular_target": "T1, Cytochrome P450 3A4"}, "[10]": {"assay": "M. tuberculosis H37Rv growth inhibitors, H37Rv strain (AID 1626)", "format": "functional"}, "Prothrombin": {"molecular_target": "Prothrombin (Homo sapiens, UniProt P00734)", "assay": "Thrombin 1536 HTS Dose Response Confirmation. [Related pubchem assays: 1046 (Thrombin 1536 HTS; hits were confirmed in this assay)]", "format": "functional"}, "Vero": {"test_system": "Vero", "assay": "mammalian cell viability reduction – secondary assay, cytotoxicity control for West Nile virus antiviral project, dose response (AID 1650)", "format": "functional", "conditions": "Chlorocebus sabaeus"}, "[11]": {"molecular_target": "T3, Corticotropin-releasing factor receptor 2/Corticotropin-releasing factor-binding protein (Homo sapiens, UniProt P24387+Q13324)", "T3 sequence (Q13324 whole entry)": "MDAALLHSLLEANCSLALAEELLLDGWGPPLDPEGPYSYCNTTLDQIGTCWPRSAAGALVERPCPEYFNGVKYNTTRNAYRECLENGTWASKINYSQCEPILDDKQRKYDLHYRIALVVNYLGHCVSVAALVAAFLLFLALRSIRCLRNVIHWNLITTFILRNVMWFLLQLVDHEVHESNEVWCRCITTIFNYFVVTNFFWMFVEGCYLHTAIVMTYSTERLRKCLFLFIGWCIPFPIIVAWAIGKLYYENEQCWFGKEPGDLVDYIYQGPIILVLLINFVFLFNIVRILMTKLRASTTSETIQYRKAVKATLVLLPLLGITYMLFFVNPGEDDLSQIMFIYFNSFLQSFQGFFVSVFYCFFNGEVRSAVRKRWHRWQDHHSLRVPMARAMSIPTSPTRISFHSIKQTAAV", "T3 sequence (P24387 whole entry)": "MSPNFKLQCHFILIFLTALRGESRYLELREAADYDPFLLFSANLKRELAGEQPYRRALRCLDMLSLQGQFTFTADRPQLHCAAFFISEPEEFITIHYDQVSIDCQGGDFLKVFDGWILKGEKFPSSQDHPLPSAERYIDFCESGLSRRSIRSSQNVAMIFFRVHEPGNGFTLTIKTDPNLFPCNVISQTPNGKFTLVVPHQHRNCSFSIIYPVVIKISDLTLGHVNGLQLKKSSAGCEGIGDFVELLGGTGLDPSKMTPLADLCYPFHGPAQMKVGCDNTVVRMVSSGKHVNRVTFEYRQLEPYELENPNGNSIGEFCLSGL", "assay": "Dose Response confirmation of uHTS hits for small molecule antagonists of the CRF-binding protein and CRF-R2 receptor complex.", "format": "functional", "conditions": "read-out: IC50_Mean"}, "[12]": {"molecular_target": "T3, Corticotropin-releasing factor receptor 2/Corticotropin-releasing factor-binding protein", "assay": "activators of CRF receptor 2 with binding protein – uHTS hits, confirmation (AID 602473)", "format": "functional", "conditions": "read-out: EC50_Mean"}, "[13]": {"assay": "Luminescence-based cell-based high throughput dose response assay to identify activators of the DAF-12 from the parasite S. stercoralis (ssDAF-12).", "format": "functional"}, "[14]": {"molecular_target": "T4, Oxysterols receptor LXR-beta (Homo sapiens, UniProt P55055)", "T4 sequence (P55055 whole entry)": "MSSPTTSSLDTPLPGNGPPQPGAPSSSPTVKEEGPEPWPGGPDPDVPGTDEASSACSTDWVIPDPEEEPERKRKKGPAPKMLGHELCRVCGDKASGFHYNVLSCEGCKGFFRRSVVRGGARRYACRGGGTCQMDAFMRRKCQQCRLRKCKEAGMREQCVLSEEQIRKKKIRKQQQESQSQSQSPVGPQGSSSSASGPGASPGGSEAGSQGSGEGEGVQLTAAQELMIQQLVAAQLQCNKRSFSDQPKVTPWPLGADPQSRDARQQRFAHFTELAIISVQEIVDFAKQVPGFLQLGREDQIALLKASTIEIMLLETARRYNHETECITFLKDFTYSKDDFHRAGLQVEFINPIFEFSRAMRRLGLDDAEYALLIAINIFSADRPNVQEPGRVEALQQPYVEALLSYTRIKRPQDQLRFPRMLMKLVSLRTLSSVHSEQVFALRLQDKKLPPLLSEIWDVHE", "assay": "LXR agonists, Gal4 luciferase reporter, dose response, counter-screen for ssDAF-12 agonist project, cell-based, luminescence, HEK293, S. stercoralis campaign (AID 720737)", "format": "functional", "conditions": "read-out: IC50 (the source's name)"}, "HeLa": {"test_system": "HeLa", "assay": "viability loss in HeLa cells – cell-based, 24 h, cherry-picked samples, cytotoxicity control, dose response (AID 504726)", "format": "functional", "conditions": "Homo sapiens"}, "[15]": {"molecular_target": "Acyl-homoserine lactone acylase PvdQ (Pseudomonas aeruginosa (strain LESB58), UniProt Q9I194)", "assay": "PvdQ acylase enzyme activity blockers – biochemical, fluorescence, plate reader and imaging, cherry-picks, dose response (AID 493231)"}, "[16]": {"molecular_target": "Voltage-gated N-type calcium channel alpha-1B subunit/Amyloid beta A4 precursor protein-binding family A member 1 (Homo sapiens, UniProt Q00975+Q02410)", "sequence (Q00975 whole entry)": "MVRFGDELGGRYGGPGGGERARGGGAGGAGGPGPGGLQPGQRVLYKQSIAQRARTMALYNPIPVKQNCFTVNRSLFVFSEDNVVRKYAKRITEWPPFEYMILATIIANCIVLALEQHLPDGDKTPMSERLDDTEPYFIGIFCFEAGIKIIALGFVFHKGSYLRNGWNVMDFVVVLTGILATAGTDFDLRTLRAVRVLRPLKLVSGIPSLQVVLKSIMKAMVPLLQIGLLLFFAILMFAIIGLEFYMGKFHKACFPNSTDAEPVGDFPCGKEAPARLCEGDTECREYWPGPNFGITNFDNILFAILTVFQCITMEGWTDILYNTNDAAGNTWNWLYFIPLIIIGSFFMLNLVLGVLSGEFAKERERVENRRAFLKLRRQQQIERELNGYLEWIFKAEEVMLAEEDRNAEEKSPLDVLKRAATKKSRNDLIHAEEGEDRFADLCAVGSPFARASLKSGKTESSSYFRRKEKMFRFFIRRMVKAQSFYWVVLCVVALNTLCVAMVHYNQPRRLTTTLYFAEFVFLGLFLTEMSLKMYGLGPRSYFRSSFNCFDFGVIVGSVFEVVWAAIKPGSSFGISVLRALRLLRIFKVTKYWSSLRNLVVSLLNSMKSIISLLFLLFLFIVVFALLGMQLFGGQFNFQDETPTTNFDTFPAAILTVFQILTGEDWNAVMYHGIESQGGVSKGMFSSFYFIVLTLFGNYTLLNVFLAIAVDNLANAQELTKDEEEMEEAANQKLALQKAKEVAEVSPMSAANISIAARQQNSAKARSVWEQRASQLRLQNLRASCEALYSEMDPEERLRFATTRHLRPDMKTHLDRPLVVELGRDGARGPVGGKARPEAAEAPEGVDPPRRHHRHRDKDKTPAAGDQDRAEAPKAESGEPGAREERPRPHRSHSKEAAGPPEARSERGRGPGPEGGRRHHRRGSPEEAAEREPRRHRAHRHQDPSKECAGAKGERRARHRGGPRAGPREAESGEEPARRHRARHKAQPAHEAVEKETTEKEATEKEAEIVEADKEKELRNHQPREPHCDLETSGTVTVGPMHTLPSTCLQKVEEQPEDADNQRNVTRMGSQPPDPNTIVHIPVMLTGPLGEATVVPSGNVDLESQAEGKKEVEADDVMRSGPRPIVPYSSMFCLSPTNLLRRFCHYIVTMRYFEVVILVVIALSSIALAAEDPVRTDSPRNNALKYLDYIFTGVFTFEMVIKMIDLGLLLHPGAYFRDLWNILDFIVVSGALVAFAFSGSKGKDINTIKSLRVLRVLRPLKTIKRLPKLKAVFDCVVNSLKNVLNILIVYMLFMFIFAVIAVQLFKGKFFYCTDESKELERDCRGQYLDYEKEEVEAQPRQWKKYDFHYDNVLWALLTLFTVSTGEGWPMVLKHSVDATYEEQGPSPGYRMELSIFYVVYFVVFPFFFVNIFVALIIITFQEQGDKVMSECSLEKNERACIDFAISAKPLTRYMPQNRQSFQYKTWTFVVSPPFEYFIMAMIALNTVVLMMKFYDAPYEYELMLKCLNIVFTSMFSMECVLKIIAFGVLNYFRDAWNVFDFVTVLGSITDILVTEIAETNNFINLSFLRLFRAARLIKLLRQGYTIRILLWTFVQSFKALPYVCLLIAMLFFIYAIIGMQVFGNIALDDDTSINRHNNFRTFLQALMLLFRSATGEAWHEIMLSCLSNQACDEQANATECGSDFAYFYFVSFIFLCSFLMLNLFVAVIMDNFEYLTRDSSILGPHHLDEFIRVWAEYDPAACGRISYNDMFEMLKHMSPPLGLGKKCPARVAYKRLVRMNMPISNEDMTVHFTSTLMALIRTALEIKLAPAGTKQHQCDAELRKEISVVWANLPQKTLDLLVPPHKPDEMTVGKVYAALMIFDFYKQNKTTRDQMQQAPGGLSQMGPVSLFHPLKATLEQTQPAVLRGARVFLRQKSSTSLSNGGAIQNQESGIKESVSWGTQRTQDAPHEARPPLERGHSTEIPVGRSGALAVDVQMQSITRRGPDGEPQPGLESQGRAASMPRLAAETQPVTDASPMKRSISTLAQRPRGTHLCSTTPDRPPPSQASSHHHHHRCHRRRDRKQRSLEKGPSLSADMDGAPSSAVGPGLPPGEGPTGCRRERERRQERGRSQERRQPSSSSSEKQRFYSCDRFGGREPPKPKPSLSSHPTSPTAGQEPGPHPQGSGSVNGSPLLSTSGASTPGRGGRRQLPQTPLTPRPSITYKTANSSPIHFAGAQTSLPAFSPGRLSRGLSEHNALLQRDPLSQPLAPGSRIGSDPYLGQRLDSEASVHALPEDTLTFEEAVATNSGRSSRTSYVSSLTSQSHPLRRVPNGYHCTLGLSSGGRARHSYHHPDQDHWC", "sequence (Q02410 whole entry)": "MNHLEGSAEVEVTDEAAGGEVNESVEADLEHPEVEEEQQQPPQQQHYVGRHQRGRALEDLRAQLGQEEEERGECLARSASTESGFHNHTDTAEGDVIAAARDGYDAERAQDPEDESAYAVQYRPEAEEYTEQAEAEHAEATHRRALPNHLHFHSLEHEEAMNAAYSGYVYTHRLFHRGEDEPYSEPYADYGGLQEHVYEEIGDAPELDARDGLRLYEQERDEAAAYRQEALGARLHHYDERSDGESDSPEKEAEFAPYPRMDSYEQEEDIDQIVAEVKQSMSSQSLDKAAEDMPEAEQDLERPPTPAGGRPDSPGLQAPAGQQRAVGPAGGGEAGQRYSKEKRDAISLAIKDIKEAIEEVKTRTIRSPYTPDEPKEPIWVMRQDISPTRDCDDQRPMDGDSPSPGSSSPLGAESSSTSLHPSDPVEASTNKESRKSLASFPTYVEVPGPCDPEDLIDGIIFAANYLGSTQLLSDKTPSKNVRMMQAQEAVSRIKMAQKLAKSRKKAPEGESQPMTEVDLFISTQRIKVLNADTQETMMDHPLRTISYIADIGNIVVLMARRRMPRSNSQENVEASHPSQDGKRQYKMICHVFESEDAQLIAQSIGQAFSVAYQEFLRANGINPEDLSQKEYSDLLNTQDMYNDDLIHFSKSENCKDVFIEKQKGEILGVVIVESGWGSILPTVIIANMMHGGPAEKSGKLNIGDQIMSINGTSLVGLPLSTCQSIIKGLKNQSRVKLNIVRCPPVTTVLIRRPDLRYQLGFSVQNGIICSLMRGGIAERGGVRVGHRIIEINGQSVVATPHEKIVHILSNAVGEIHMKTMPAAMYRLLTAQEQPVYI", "assay": "disruptors of Mint-PDZ/N-type channel peptide interaction – biochemical, HTRF, set 2, SAR follow-up (AID 434980)", "format": "functional"}},
  "note": "Activity calls are given as the source filed them.",
  "data": [
    {"compound": "COC(=O)c1ccc(C23CC4(C2)[C@H](CN(C)[C@@H]4c2ccccc2)C3c2ccc(Cl)nc2)cc1", "note": "(some centres not stated)", "values": [
      {"measurement": "AC50", "setting": "Cytochrome P450 3A4 [1]", "result": "20 µM (inconclusive)"}
    ]},
    {"compound": "O=C(COc1ccccc1Cl)NC(=S)Nc1ccccc1N1CCCC1", "values": [
      {"measurement": "EC50", "setting": "[2]", "result": "1.56 µM (active)"}
    ]},
    {"compound": "Clc1ccc2[nH]c3c(c2c1)CCc1c[nH]nc1-3", "values": [
      {"measurement": "EC50", "setting": "[3]", "result": "15 µM (active)"},
      {"measurement": "EC50", "setting": "[4]", "result": "18.1 µM (active)"},
      {"measurement": "IC50", "setting": "[5]", "result": "2.16 µM (active)"},
      {"measurement": "AC50", "setting": "[6]", "result": "0.129 µM (active)"},
      {"measurement": "AC50", "setting": "[7]", "result": "7.8 µM (active)"}
    ]},
    {"compound": "CC(=O)Nc1cccc(-c2nc3ccccc3c(=O)o2)c1", "values": [
      {"measurement": "IC50", "setting": "[5]", "result": "41.9 µM (not active)"}
    ]},
    {"compound": "Cc1cc([N+](=O)[O-])nn1CC(=O)NN=C(S)Nc1ccc(F)cc1", "values": [
      {"measurement": "EC50", "setting": "[8]", "result": "55.5 µM (not active)"},
      {"measurement": "AC50", "setting": "Cytochrome P450 2D6", "result": "0.00562 µM (inconclusive)"},
      {"measurement": "AC50", "setting": "Cytochrome P450 3A4 [9]", "result": "22.4 µM (inconclusive)"}
    ]},
    {"compound": "COc1ccc2ncc(OC(C)=O)cc2c1", "values": [
      {"measurement": "IC50", "setting": "[10]", "result": "> 100 µM (active)"},
      {"measurement": "IC50", "setting": "Prothrombin", "result": "3.24 µM (active)"}
    ]},
    {"compound": "COC(=O)C1C(c2ccccc2)C(C(=O)OCc2ccco2)C1c1ccccc1", "note": "(configuration not stated)", "values": [
      {"measurement": "CC50", "setting": "Vero", "result": "30.1 µM (active)"},
      {"measurement": "IC50", "setting": "[11]", "result": "> 47.1 µM (inactive)"},
      {"measurement": "EC50", "setting": "[12]", "result": "> 53 µM (inactive)"}
    ]},
    {"compound": "COc1ccc(Nc2nc(N)nc(CSC(=S)N3CCN(C)CC3)n2)cc1", "values": [
      {"measurement": "IC50", "setting": "[13]", "result": "> 67.6 µM (inactive)"},
      {"measurement": "EC50", "setting": "[14]", "result": "> 67.6 µM (inactive)"}
    ]},
    {"compound": "CN(C)c1ccc(/C=C/C(=O)c2ccc(O)cc2)cc1[N+](=O)[O-]", "values": [
      {"measurement": "AC50", "setting": "HeLa", "result": "51.7 µM (active)"}
    ]},
    {"compound": "COC(=O)c1ccc(OC(=O)c2ccco2)cc1", "values": [
      {"measurement": "AC50", "setting": "[15]", "result": "1.99 µM (active)"}
    ]},
    {"compound": "CC(=O)O[C@](C)(CCC=C(C)C)C1CC=C(C)CC1", "note": "(some centres not stated)", "values": [
      {"measurement": "AC50", "setting": "Cytochrome P450 3A4 [1]", "result": "31.6 µM (inconclusive)"}
    ]},
    {"compound": "COc1ccccc1N1CCN(C(=O)c2cc(-c3ccco3)nc3ccccc23)CC1", "values": [
      {"measurement": "IC50", "setting": "[16]", "result": "> 56.8 µM (inactive)"}
    ]}
  ]
}
